As a reminder, the Kd is the concentration at which binding is half-saturated.

In article PMC8858318, “Targeting autophagy peptidase ATG4B with a novel natural product inhibitor Azalomycin F4a for advanced gastric cancer” (Cell Death & Disease, 2022) one finds Kd data, which are given here for one molecule.

The experiment addresses T1, ATG4B (Homo sapiens, UniProt Q9Y4P1).
T1 sequence (Q9Y4P1 1-393): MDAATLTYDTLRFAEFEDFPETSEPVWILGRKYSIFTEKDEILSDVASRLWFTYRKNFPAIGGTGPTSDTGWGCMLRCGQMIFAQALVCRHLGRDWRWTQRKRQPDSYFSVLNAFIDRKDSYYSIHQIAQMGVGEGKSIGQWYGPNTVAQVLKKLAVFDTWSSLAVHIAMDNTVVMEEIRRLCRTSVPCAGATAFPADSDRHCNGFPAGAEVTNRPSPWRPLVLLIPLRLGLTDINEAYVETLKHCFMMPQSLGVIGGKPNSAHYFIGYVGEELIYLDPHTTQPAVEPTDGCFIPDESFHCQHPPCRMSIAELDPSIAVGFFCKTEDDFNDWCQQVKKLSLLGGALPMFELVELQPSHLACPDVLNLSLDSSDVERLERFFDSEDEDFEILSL
The experiment can be described thus: SPR (Biacore 8K, immobilized purified ATG4B); also FRET activity assay and gel-based FRET-GATE16 cleavage assay. It is filed as binding.

`CN=C(N)NCCC/C=C/CCCC(C)C1OC(=O)/C(C)=C\C=C/C(C)C(O)CC(O)C(C)C(O)CCC(C)C(O)CC2(O)OC(CC(OC(=O)CC(=O)O)CC(O)CC(O)CC(O)/C(C)=C\C=C/C1C)CC(O)C2O` (stereo not shown) [Am-F4a, Azalomycin F4a]: the dissociation constant (Kd) came out at 11.8 µM.
